In patent publication EP0454060B1, “3-(Mercaptoalkyl)-quinazoline-2,4(1H,3H)-diones, processes for their preparation, and pharmaceutical compositions” (priority 1990, dated 1991):

What was measured:
Vaccinia Lister = assay: Plaque reduction test on primary HEZ; settings: mean of two experiments
Coxsackie A 9-Virus = assay: Antiviral test in vitro; format: cell-based
[1] = system: primären Hühnerembryonalzellen (2 Tage alt); assay: Cell tolerance, microscopic reading; format: cell-based, Hühner; design: key: 0̸: Am 5. Tag der mikroskopischen Ablesung keine morphologischen Veränderungen der Zellen.; ++++: Komplette Veränderungen der Zellschicht in Form von Abrundung, Granulierung und Ablösen der Zellen von der Glaswand.; +++: Analoge Veränderungen bei 3/4 des Zellrasens.; ++: Analoge Veränderungen bei 1/2 des Zellrasens.; +: Analoge Veränderungen bei 1/4 des Zellrasens; settings: HEZ, reading day 5
Source text: 0̸ = Am 5. Tag der mikroskopischen Ablesung keine morphologischen Veränderungen der Zellen. ++++ = Komplette Veränderungen der Zellschicht in Form von Abrundung, Granulierung und Ablösen der Zellen von der Glaswand. +++ = Analoge Veränderungen bei 3/4 des Zellrasens. ++ = Analoge Veränderungen bei 1/2 des Zellrasens. + = Analoge Veränderungen bei 1/4 des Zellrasens.

[2] = system: SE-spezifischen IgM- und IgG-PBZ; assay: Haemolysis plaque test (immunostimulation); format: in vivo, Maus (Inzuchtstamm CBA); settings: 2,0 mg/kg daily over 5 days, peroral, p < 0,001
Source text: Der Nachweis immunstimulierender Effekte wurde weiterhin an der Maus (Inzuchtstamm CBA) und u. a. mit Hilfe folgender Nachweismethoden geführt: • Plaque-Test zum Nachweis von SE-spezifischen IgM- und IgG-PBZ, • Rosettentest.
Aus den Werten wird deutlich, daß die Verbindungen der allgemeinen Formel I einen gut nachweisbaren Effekt auf die Effektor-T-Lymphozyten-abhängige verzögerte Uberempfindlichkeit haben. Kontaktdermatitis-Werte ab 120 (≙ 20 % Steigerung gegenüber der Kontrolle) bzw. unter 80 werden als Nachweis eines stimulatorischen bzw. suppressorischen Effektes angesehen. Antikörpertiter-Differenzen von >+1 bzw. <-1 verdeutlichen den stimulatorischen bzw. suppressorischen Effekt der Substanzen auf die humorale Immunantwort. 2. Untersuchungen zur immunstimulierenden Wirkung • 2.1 Plaque-Test zum Nachweis von SE-spezifischen IgM- und IgG-PBZ Zur Prüfung immunstimulierender Effekte wurde u. a. auch der Einfluß von Verbindungen der allgemeinen Formel I auf die humorale Immunantwort an Mäusen des Inzuchtstammes CBA und mittels Hämolyse-Plaque-Test (HPT) untersucht. Diese Technik erlaubt die quantitative und getrennte Erfassung IgM- und IgG-Antikörper produzierender Zellen (= Plaque bildende Zellen; PBZ). […]

Influenza A/WSN = assay: One-step replication cycle on permanent human kidney cell line

Structure (SMILES) | Plaquereduktion in % zur Viruskontrolle auf primären HEZ (Vaccinia Lister; 125 µmol/l) | Plaquereduktion in % zur Viruskontrolle auf primären HEZ (Vaccinia Lister; 250 µmol/l) | Plaquereduktion in % zur Viruskontrolle auf primären HEZ (Vaccinia Lister; 31,25 µmol/l, 31.25 µM) | Plaquereduktion in % zur Viruskontrolle auf primären HEZ (Vaccinia Lister; 62,5 µmol/l, 62.5 µM) | antivirale Wirkung (Coxsackie A 9-Virus) | Zellverträglichkeit ([1]; 125 µmol/l in maintenance medium) | Zellverträglichkeit ([1]; 250 µmol/l in maintenance medium) | Zellverträglichkeit ([1]; 500 µmol/l in maintenance medium) | Zellverträglichkeit ([1]; 1000 µmol/l in maintenance medium) | Zellverträglichkeit ([1]; 62,5 µmol/l in maintenance medium) | IgG-PBZ (Kontrolle: 100 %) ([2]; days +1 to +5) | Zahl der IgM-PBZ im Vergleich zur Kontrolle (100 %) ([2]; days -1 to +3, average value) | % Hemmung (Influenza A/WSN; Beispielreihe 5a, 125 µmol/l) | Senkung des Virusertrages im Vergleich zur unbehandelten Kontrolle (Influenza A/WSN; Beispielreihe 5a, 125 µmol/l) | % Hemmung (Influenza A/WSN; Beispielreihe 5a, 250 µmol/l) | Senkung des Virusertrages im Vergleich zur unbehandelten Kontrolle (Influenza A/WSN; Beispielreihe 5a, 250 µmol/l) | Senkung des Virusertrages im Vergleich zur unbehandelten Kontrolle (Influenza A/WSN; Beispielreihe 5a, 31,25 µmol/l) | Senkung des Virusertrages im Vergleich zur unbehandelten Kontrolle (Influenza A/WSN; Beispielreihe 5a, 62,5 µmol/l) | % Hemmung (Influenza A/WSN; Beispielreihe 5a, 62,5 µmol/l, n. s. = nicht signifikant)
O=c1[nH]c2ccccc2c(=O)n1CCS [Beispiel 1, 3-(2-Mercaptoethyl)-chinazolin-2,4(1H,3H)-dion] | 96% | 100% | 87% | 92% | nicht antiviral wirksam | 0̸ | 0̸ | + | +++ | 0̸ | 497% | 352% | – | – | – | – | – | – | –
COc1cc2[nH]c(=O)n(CCCS)c(=O)c2cc1OC [Beispiel 2, 3-(3-Mercaptoprop-1-yl)-6,7-dimethoxychinazolin-2,4(1H,3H)-dion] | – | – | – | – | – | – | – | – | – | – | – | – | 99,0% | 2,0 log10 TCID50/0,2 ml | 99,99% | 6,17 log10 TCID50/0,2 ml | 0 log10 TCID50/0,2 ml | 0,5 log10 TCID50/0,2 ml | n. s.
